# According to PMC5845353, “The selective cathepsin K inhibitor MIV-711 attenuates joint pathology in experimental animal models of osteoarthritis” (Journal of Translational Medicine, 2018):
# Columns and labels:
# Type in all cases: in vivo
# CTX-II = assay: Urinary CTX-II in dogs subjected to partial medial meniscectomy; conditions: dog, 30 µmol/kg
# Description: Dogs subjected to partial medial meniscectomy received either 30 µmol/kg MIV-711 (synthesized by Medivir and given as a suspension in 1% Methocel A4C; n = 15) or vehicle (1% Methocel A4C; n = 15) by orogastric gavage once daily in the morning. […] Dosing started the day before surgery and lasted through Day 28, the day before necropsy. Each dog was fasted for at least 12 h before dosing and food were returned approximately 4 h following test article administration.
# Urine samples were collected from the animals 1 to 3 days before surgery and treatment (baseline sample), 4 to 7 days after the start of treatment (Day 7 sample) and 26 to 28 days after treatment (Day 28 sample). Dogs were housed in metabolic cages overnight during urine collection. […]
# In rabbits, conventional CTX-I assays to assess bone resorption cannot be used due to species differences. Instead, urinary helical peptide (HP-1) concentrations were measured in rabbits using the MicroVue Helical Peptide kit (Ref: 8022) from Quidel (San Diego, CA) according to the instructions supplied by the manufacturer. In dogs, urinary levels of C-terminal telopeptide of collagen type I (CTX-I) were measured using a commercially available kit (Urine BETA CrossLaps ELISA, Ref: AC-05F1, IDS Nordic Bioscience Diagnostics A/S). […] In dogs, CTX-II levels were also measured in synovial fluid. […]
# [1] = Plasma concentrations of MIV-711 in ACLT rabbits (LC-MS/MS); conditions: rabbit plasma
# Description: (§1) Starting 1 week after sham operation or ACLT, animals were dosed daily for 7 weeks by oral gavage with either MIV-711 (synthesized by Medivir and given as a suspension in 1% Methocel A4C in water) or vehicle (1% Methocel A4C in water) at a dose volume of 4 mL/kg. The four treatment groups (n = 7 in each group) were: (1) sham + vehicle; (2) ACLT + vehicle; (3) ACLT + MIV-711, 30 µmol/kg (low dose) and (4) ACLT + MIV-711, 100 µmol/kg (high dose).
# Twelve blood samples of 1 mL each were collected from each animal for determination of MIV-711 concentrations in a staggered manner to cover as many time points as possible. The blood samples were collected on Day 1, Day 10 and during Week 4 and Week 7. The samples were collected in EDTA coated tubes and kept on ice. The plasma was separated by centrifugation (2000g for 3–5 min at 4 °C) and then frozen and kept at − 70 °C until analysis.
# To measure MIV-711 concentrations, 10–50 µL of plasma or synovial fluid was mixed with 30–150 µL of acetonitrile, samples were centrifuged (10 min, 20,000g, 7 °C) and 5 µL of the supernatant was injected onto the LC–MS/MS system. The lower limit of quantification (LLOQ) was 1 nmol/L.
# [2] = test system: rabbits subjected to anterior cruciate ligament transection (ACLT); assay: Rabbit ACLT study, µCT osteophyte volume; conditions: 30 and 100 µmol/kg, data not shown
# Description: as §1
# Femora and tibias from all animals were subjected to µCT scanning without and with contrast reagent, to visualize bone and cartilage, respectively. Samples were scanned on a high-resolution, volumetric µCT scanner (μCT40, ScanCo Medical, Zurich, CH). The image data was acquired with the following parameters: 36 μm isotropic voxel resolution at 300 ms exposure time, 2000 views and 1 frame per view. Each sample was scanned twice, once for acquiring bone data and once for soft tissue data. […] After the segmentation process, the voxel count associated with each of the regions of interest was calculated using VHLab. […] Cartilage thickness was calculated using SCIRun (Scientific Computing and Imaging Institute, University of Utah). The distance from the bone to the outer surface of the articulating cartilage was calculated. […] Similarly, the thickness and thickness map image of the subchondral bone was calculated. […]
# [3] = test system: dogs subjected to partial medial meniscectomy; assay: Dog partial medial meniscectomy study, cartilage area image analysis
# Description: In order to quantitate and compare the cartilage matrix preservation, cartilage area measurements were taken from the most severely affected section of each animal. In this section, the most severely affected area - generally zone 2 - is analyzed at 25x magnification. Photomicrographs were taken with a digital microscope camera, and analyzed with appropriate software. The following measurements were taken:
# Total area from the tidemark to the surface (or projected surface in degenerated areas), extending from the axial to abaxial aspects of the medial tibial plateau zones in the most severely affected area (generally zone 2)
# Area of non-viable matrix (cartilage with less than 50% chondrocytes, proteoglycan, and intact collagen) and no matrix within the total area of zone 2 or most severely affected area in the photomicrograph
# Area of no matrix within the total area being analyzed
# The area of non-viable matrix in zone under analysis was subtracted from the total area in the photomicrograph to get the area of viable matrix in this area, and the area of no matrix was subtracted from the total area to get the area of any matrix (collagen matrix with or without chondrocytes and proteoglycan). These two values were then compared back to the total area to derive the % viable area and the % any matrix in this area of greatest lesion severity, which were compared between groups.
# [4] = single oral administration 30 µmol/kg
# [5] = single oral administration 100 µmol/kg
# [6] = individual animals of MIV-711 group, per section level (first line of animal, L2, L3)
smiles,measurement,setting,value
C#C[C@@H]1CN(C(=O)[C@H](CC(C)C)NC(=O)c2ccc(-c3nc(N4CCN(C)CC4)sc3F)cc2)[C@@H]2C(=O)CO[C@H]12 [MIV-711],urinary CTX-II levels reduced by,"CTX-II; Day 7, vs. baseline",80%
same,urinary CTX-II levels reduced by,"CTX-II; Day 28, vs. baseline",80%
same,AUC0–24 h,[1]; [4],0.78 µM·h
same,Cmax,[1]; [4],250 nM
same,AUC0–24 h,[1]; [5],7.0 µM·h
same,Cmax,[1]; [5],1800 nM
same,effect on osteophyte volumes in femur and tibia (µCT),[2],not apparently affected
same,Cartilage Area: % Any Matrix Area,[3]; group Mean,96%
same,Cartilage Area: % Viable Area,[3]; group Mean,88%
same,Cartilage Area: % Any Matrix Area,[3]; [6],100%
same,Cartilage Area: % Viable Area,[3]; [6],100%
same,"Percent Inhibition, % Any Matrix Area",[3]; versus Vehicle,-11%
same,"Percent Inhibition, % Viable Area",[3]; versus Vehicle,8%
